This note sets out measurements from ChEMBL document CHEMBL3132769, “Fragment growing to retain or alter the selectivity of anchored kinase hinge-binding fragments” (Medchemcomm, 2014).

By inhibition is commonly meant the relative decrease from the control value, in per cent.

Assay [1] deals with T1, Testis-specific serine/threonine-protein kinase 1 (Homo sapiens) (UniProt Q9BXA7).
T1 sequence (whole entry): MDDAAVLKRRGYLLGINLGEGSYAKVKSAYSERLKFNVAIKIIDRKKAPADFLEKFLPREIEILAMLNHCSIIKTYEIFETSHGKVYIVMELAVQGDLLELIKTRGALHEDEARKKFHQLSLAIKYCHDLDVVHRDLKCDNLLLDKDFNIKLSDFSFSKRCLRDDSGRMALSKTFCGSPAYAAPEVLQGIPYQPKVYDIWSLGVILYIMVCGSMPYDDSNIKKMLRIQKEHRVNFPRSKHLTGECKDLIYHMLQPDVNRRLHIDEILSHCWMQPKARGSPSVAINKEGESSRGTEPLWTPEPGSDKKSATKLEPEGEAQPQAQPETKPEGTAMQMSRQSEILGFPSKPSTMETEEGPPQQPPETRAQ
In words: Inhibition of human full length TSSK1 expressed in baculovirus assessed as substrate phosphorylation using fluorescence-labelled peptides as substrate at 8 uM after 90 mins by microfluidic peptide phosphorylation assay.

For assay [2], the target named is T2, Serine/threonine-protein kinase Nek2 (Homo sapiens) (UniProt P51955).
T2 sequence (whole entry): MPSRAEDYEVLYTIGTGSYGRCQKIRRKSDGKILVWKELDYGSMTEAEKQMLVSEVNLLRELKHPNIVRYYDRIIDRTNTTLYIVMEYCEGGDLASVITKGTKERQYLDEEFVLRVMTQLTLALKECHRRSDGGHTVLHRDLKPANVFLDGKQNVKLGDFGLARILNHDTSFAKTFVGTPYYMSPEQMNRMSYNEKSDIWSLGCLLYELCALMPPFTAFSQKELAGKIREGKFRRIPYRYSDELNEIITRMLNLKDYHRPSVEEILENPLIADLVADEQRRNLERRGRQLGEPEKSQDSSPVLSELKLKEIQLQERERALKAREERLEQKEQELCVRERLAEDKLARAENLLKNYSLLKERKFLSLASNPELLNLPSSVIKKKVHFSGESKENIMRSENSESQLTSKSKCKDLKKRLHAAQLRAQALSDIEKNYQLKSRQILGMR
As to the kind of experiment: Inhibition of human full length NEK2 expressed in baculovirus assessed as substrate phosphorylation using fluorescence-labelled peptides as substrate at 8 uM after 90 mins by microfluidic peptide phosphorylation assay.

Assay [3] has as its target Ribosomal protein S6 kinase alpha-1 (Homo sapiens) (UniProt Q15418). As to the kind of experiment: Inhibition of human full length RSK1 expressed in baculovirus assessed as substrate phosphorylation using fluorescence-labelled peptides as substrate at 8 uM after 90 mins by microfluidic peptide phosphorylation assay.
For assay [4], the target named is RAC-alpha serine/threonine-protein kinase (Homo sapiens) (UniProt P31749). In words: Inhibition of human AKT1 catalytic domain expressed in baculovirus assessed as substrate phosphorylation using fluorescence-labelled peptides as substrate at 8 uM after 90 mins by microfluidic peptide phosphorylation assay.
In assay [5] the target is Fibroblast growth factor receptor 1 (Homo sapiens) (UniProt P11362). As to the kind of experiment: Inhibition of human FGFR1 catalytic domain expressed in baculovirus assessed as substrate phosphorylation using fluorescence-labelled peptides as substrate at 420 uM after 90 mins by microfluidic peptide phosphorylation assay.
In assay [6] the target is Mitogen-activated protein kinase 1 (Homo sapiens) (UniProt P28482). As to the kind of experiment: Inhibition of human full length ERK2 expressed in Escherichia coli cell assessed as substrate phosphorylation using fluorescence-labelled peptides as substrate at 420 uM after 90 mins by microfluidic peptide phosphorylation assay.
Assay [7] deals with Fibroblast growth factor receptor 2 (Homo sapiens) (UniProt P21802). The following applies: 0.1 uM.
Description: Inhibition of human FGFR2 catalytic domain expressed in baculovirus assessed as substrate phosphorylation using fluorescence-labelled peptides as substrate at 0.1 uM after 90 mins by microfluidic peptide phosphorylation assay
Assay [8] has as its target Tyrosine-protein kinase HCK (Homo sapiens) (UniProt P08631). As to the kind of experiment: Inhibition of human HCK catalytic domain expressed in baculovirus assessed as substrate phosphorylation using fluorescence-labelled peptides as substrate at 0.06 uM after 90 mins by microfluidic peptide phosphorylation assay.
The target in assay [9] is T3, Mitogen-activated protein kinase 13 (Homo sapiens) (UniProt O15264).
T3 sequence (whole entry): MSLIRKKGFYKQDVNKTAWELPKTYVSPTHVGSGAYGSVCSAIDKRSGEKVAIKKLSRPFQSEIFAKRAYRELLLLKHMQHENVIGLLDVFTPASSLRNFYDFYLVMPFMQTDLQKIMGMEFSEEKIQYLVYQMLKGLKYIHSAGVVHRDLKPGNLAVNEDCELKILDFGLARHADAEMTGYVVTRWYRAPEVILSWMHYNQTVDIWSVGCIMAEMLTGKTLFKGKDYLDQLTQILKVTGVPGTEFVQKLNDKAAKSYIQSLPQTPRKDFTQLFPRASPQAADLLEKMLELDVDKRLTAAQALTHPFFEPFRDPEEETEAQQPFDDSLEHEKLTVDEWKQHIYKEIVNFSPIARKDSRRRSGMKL
As to the kind of experiment: Inhibition of human full length p38 delta expressed in Escherichia coli cell assessed as substrate phosphorylation using fluorescence-labelled peptides as substrate at 0.06 uM after 90 mins by microfluidic peptide phosphorylation assay.

The target of assay [10] is T4, Serine/threonine-protein kinase Sgk1 (Homo sapiens) (UniProt O00141).
T4 sequence (whole entry): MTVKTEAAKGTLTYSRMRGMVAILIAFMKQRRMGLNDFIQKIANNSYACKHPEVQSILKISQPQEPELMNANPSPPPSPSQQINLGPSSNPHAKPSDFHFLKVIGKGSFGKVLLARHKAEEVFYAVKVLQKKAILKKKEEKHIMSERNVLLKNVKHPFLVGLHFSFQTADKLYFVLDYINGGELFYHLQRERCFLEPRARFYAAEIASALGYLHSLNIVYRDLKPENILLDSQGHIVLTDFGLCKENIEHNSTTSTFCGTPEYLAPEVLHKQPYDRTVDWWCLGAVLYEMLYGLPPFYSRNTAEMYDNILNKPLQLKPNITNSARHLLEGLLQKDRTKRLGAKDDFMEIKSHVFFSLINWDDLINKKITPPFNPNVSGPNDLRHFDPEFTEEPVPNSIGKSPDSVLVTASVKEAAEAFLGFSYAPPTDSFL
As to the kind of experiment: Inhibition of human truncated SGK1 expressed in baculovirus assessed as substrate phosphorylation using fluorescence-labelled peptides as substrate at 0.2 uM after 90 mins by microfluidic peptide phosphorylation assay.

Assay [11] has as its target Fibroblast growth factor receptor 2 (Homo sapiens) (UniProt P21802). As to the kind of experiment: Inhibition of human FGFR2 catalytic domain expressed in baculovirus assessed as substrate phosphorylation using fluorescence-labelled peptides as substrate at 2 uM after 90 mins by microfluidic peptide phosphorylation assay.
For assay [12], the target named is Tyrosine-protein kinase Fer (Homo sapiens) (UniProt P16591). In words: Inhibition of human FER catalytic domain expressed in baculovirus assessed as substrate phosphorylation using fluorescence-labelled peptides as substrate at 2 uM after 90 mins by microfluidic peptide phosphorylation assay.
Assay [13] concerns the target Protein kinase C theta type (Homo sapiens) (UniProt Q04759). In words: Inhibition of human truncated PKC theta expressed in baculovirus assessed as substrate phosphorylation using fluorescence-labelled peptides as substrate at 1000 uM after 90 mins by microfluidic peptide phosphorylation assay.
Assay [14] deals with Ribosomal protein S6 kinase alpha-3 (Homo sapiens) (UniProt P51812). As to the kind of experiment: Inhibition of human full length RSK2 expressed in baculovirus assessed as substrate phosphorylation using fluorescence-labelled peptides as substrate at […] after 90 mins by microfluidic peptide phosphorylation assay.

The structures appear in SMILES notation.

Sequence of Fibroblast growth factor receptor 2 (Homo sapiens) (P21802 22-821 limits assumed): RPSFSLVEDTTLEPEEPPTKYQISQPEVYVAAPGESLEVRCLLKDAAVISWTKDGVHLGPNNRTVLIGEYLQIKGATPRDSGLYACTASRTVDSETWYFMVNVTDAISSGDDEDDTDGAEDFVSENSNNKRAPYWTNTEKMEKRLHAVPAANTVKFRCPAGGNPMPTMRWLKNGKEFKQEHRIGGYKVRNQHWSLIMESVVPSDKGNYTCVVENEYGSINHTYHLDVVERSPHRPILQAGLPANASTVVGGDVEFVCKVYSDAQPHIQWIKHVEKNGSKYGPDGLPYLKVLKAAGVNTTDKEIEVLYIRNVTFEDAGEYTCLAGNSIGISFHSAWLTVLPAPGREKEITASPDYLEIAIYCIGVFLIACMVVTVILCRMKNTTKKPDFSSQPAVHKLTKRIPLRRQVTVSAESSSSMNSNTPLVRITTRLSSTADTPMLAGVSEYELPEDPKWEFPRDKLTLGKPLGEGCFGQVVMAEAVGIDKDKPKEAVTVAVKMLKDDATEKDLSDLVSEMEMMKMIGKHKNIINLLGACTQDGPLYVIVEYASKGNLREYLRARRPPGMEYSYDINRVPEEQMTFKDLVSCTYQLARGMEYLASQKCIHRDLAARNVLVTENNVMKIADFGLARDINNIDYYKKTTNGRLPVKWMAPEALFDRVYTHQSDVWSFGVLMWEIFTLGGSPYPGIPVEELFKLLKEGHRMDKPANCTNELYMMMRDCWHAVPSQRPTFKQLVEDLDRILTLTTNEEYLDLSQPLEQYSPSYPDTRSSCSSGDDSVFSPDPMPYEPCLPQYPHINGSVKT
Sequence of Tyrosine-protein kinase HCK (Homo sapiens) (P08631 2-526 limits assumed): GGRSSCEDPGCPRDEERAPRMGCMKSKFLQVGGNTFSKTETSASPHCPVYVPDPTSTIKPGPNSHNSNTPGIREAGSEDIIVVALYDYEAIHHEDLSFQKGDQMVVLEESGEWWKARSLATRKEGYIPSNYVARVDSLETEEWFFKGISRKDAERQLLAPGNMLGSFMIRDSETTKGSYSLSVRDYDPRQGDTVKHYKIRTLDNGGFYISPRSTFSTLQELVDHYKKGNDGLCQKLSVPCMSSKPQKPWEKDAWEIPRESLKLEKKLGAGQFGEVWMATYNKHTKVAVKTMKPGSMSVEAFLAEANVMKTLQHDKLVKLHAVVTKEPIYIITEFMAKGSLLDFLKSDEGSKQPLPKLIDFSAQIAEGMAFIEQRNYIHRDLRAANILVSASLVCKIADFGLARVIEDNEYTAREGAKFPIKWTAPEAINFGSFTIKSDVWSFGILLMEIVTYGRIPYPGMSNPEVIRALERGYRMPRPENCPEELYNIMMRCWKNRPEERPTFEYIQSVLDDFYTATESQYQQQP
Sequence of Ribosomal protein S6 kinase alpha-3 (Homo sapiens) (P51812 whole entry): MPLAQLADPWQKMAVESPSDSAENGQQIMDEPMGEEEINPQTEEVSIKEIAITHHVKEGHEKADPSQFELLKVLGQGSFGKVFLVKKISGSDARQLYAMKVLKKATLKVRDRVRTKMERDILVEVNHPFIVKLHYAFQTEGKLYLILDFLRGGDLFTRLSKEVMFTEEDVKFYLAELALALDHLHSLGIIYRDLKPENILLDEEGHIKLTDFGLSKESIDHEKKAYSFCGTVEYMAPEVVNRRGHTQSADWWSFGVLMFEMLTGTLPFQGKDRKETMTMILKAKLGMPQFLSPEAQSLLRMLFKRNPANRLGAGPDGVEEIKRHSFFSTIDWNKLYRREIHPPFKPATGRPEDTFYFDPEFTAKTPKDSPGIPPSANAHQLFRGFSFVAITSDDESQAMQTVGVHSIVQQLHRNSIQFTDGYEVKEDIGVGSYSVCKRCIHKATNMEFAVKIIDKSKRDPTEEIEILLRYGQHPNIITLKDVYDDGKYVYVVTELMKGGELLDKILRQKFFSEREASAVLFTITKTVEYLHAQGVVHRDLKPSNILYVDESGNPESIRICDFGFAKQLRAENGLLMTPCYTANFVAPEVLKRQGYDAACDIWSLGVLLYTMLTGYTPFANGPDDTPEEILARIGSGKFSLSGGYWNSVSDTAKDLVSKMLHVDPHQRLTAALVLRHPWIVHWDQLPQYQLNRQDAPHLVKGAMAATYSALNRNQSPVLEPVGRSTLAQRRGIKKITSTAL
Sequence of RAC-alpha serine/threonine-protein kinase (Homo sapiens) (P31749 whole entry, the tested form may be a part): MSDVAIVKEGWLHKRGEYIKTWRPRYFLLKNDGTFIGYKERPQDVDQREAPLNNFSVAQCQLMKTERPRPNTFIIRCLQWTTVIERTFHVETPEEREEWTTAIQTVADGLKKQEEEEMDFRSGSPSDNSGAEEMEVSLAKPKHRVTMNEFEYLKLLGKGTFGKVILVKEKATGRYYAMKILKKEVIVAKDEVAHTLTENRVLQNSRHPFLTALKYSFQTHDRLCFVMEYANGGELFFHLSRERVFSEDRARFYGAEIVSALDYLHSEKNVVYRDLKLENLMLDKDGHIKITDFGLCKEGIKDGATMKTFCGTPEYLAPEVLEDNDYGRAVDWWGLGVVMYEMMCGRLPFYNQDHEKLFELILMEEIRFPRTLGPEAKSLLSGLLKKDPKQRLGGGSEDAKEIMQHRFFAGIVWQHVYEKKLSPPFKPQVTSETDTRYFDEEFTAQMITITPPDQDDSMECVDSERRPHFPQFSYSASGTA
Sequence of Protein kinase C theta type (Homo sapiens) (Q04759 whole entry, looked up, the tested form may be a part): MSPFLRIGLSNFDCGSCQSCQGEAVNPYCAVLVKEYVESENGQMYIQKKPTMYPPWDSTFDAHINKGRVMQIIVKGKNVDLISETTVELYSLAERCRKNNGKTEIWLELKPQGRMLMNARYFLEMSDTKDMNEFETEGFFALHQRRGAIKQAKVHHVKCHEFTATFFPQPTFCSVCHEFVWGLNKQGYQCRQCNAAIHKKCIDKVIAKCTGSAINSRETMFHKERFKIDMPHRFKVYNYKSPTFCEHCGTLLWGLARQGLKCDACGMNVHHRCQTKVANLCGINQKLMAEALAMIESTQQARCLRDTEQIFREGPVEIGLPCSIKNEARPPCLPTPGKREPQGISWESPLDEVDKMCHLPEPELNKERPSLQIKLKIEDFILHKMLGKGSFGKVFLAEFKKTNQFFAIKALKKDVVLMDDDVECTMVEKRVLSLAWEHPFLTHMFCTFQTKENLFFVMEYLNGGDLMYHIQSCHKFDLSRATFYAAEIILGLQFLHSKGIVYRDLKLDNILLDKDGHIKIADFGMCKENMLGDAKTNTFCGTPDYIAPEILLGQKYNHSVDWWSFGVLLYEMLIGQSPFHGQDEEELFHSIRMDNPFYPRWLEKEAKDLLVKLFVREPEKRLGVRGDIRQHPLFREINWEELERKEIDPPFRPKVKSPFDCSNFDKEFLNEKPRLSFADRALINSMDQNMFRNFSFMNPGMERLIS
Sequence of Tyrosine-protein kinase Fer (Homo sapiens) (P16591 whole entry, looked up, the tested form may be a part): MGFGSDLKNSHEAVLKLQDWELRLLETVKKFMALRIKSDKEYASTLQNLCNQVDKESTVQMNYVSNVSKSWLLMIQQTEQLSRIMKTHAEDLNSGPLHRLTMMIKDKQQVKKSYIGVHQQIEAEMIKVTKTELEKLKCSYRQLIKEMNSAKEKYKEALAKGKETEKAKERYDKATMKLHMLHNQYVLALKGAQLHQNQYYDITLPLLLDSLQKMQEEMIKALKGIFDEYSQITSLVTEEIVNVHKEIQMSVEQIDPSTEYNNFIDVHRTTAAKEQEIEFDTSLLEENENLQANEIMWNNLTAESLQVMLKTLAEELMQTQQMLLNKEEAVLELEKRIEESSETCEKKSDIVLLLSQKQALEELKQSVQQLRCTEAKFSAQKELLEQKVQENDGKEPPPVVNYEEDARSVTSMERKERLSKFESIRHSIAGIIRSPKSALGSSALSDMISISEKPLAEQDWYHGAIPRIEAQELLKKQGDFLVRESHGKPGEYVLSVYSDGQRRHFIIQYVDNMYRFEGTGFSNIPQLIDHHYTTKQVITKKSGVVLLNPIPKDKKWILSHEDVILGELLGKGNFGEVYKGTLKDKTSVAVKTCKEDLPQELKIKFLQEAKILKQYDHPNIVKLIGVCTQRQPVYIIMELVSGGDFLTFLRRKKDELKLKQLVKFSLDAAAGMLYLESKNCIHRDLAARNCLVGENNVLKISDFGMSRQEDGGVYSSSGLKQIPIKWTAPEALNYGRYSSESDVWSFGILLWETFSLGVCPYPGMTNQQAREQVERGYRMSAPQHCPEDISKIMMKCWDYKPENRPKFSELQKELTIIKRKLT
Sequence of Ribosomal protein S6 kinase alpha-1 (Homo sapiens) (Q15418 whole entry, the tested form may be a part): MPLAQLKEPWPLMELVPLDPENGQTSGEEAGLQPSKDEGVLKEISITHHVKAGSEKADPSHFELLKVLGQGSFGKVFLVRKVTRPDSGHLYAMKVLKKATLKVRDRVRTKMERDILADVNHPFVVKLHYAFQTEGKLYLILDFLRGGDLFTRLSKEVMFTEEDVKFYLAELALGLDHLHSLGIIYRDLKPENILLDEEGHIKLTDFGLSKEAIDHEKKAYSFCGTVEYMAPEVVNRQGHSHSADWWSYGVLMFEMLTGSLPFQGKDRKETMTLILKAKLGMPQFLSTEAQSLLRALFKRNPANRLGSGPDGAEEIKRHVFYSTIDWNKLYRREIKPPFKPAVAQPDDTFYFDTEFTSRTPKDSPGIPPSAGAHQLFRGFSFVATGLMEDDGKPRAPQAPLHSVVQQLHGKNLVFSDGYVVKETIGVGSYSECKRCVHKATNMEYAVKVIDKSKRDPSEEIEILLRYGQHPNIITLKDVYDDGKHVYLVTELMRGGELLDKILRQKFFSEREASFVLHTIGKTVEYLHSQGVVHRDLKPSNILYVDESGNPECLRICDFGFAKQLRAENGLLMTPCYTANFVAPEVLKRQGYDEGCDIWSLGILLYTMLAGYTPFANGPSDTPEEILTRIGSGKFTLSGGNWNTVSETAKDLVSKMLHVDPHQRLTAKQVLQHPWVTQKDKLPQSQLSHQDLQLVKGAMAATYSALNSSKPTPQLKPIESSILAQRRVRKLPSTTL

With `NCC1CCN(c2ncnc3[nH]ccc23)CC1`, the inhibition in [1] amounted to 25.5%; in [2], 0%; in assay [3], 11.5%; in [4], 96%. Consider `c1nc(N2CCOCC2)c2nc[nH]c2n1`, for which the results for the inhibition in assay [5] and in assay [6] were 97% and 68%, respectively. Take `C[C@H](CN(C)C)Oc1nc(Nc2cc3cccc(Cl)c3cn2)cnc1C#N`: the inhibition in assay [7] was found to be 0%. `NC1(Cc2ccc(Cl)cc2)CCN(c2ncnc3[nH]ccc23)CC1`: the inhibition came to 7% in assay [8] and 0% in assay [9]. For `Clc1ccc(C2(c3ccc(-c4ncnc5[nH]cnc45)cc3)CCNCC2)cc1`, in assay [10], the inhibition is 33%.

Regarding `NC1CCN(c2ncnc3[nH]ccc23)CC1`, the inhibition in assay [11] stood at 1.5%; in [12], 13.5%. As for `c1cnc2[nH]ccc2c1`, the inhibition in assay [13] worked out at 29%. With `COC(=O)c1cnc(Nc2cnc(C#N)cn2)cc1NCC1CCNCC1`, the inhibition in assay [14] was found to be 42%.
